Source: ChEMBL document CHEMBL3872241, “Synthesis and bioactivity evaluation of 2,3-diaryl acrylonitrile derivatives as potential anticancer agents” (Bioorg Med Chem Lett, 2017)

Tests used:
HCT-116 = experiment: Selectivity index, ratio of IC50 for human L02 cells to IC50 for human HCT116 cells; type: functional
[1] = Cytotoxicity against human Bel7402 cells assessed as cell growth inhibition after 48 hrs by MTT assay; type: functional, cell-based; conditions: Bel-7402, 48 h
[2] = Cytotoxicity against human HCT116 cells assessed as cell growth inhibition after 48 hrs by MTT assay; type: functional, cell-based; conditions: HCT-116, 48 h
Bel-7402 = experiment: Selectivity index, ratio of IC50 for human L02 cells to IC50 for human Bel7402 cells; type: functional
[3] = Cytotoxicity against human HeLa cells assessed as cell growth inhibition after 48 hrs by MTT assay; type: functional, cell-based
[4] = Cytotoxicity against human L02 cells assessed as cell growth inhibition at 100 uM after 48 hrs by MTT assay; type: toxicity, cell-based; conditions: read-out: GI
[5] = Cytotoxicity against human HeLa cells assessed as cell growth inhibition at 100 uM after 48 hrs by MTT assay; type: functional; conditions: read-out: GI
[6] = Cytotoxicity against human L02 cells assessed as cell growth inhibition after 48 hrs by MTT assay; type: toxicity, cell-based
[7] = Cytotoxicity against human Bel7402 cells assessed as cell growth inhibition at 100 uM after 48 hrs by MTT assay; type: functional; conditions: Bel-7402, 48 h, read-out: GI
[8] = Cytotoxicity against human HCT116 cells assessed as cell growth inhibition at 100 uM after 48 hrs by MTT assay; type: functional; conditions: HCT-116, 48 h, read-out: GI

SMILES	Ratio IC50 (HCT-116)	IC50 [1] [µM]	IC50 [2] [µM]	Ratio IC50 (Bel-7402)	IC50 [3] [µM]	inhibition at 48 h, 100 µM [4] [%]	inhibition of growth at 100 µM [5] [%]	IC50 at 48 h [6] [µM]	inhibition of growth at 100 µM [7] [%]	inhibition of growth at 100 µM [8] [%]
COc1cc(OC)cc(/C(C#N)=C/c2ccc(C(F)(F)F)cc2)c1	>4.58	27.6	21.8	>3.62	> 100	22.9	48.2	> 100	–	–
COc1cc(OC)cc(/C(C#N)=C/c2ccc(Cl)cc2)c1	>2.31	8.04	43.3	>12.43	15.9	33.6	–	> 100	–	–
CCc1ccc(/C=C(\C#N)c2cc(OC)cc(OC)c2)cc1	>76.92	0.35	1.3	>285.71	> 100	32.8	40.6	> 100	–	–
COc1cc(OC)cc(/C(C#N)=C/c2c(C)cc(C)cc2C)c1	–	> 100	> 100	–	> 100	28.1	2.7	> 100	13.4	28.9
COc1cc(OC)cc(/C(C#N)=C/c2c(F)cccc2Cl)c1	–	> 100	> 100	–	> 100	41.8	35.9	> 100	11.1	32.9
COc1cc(OC)cc(/C(C#N)=C/c2cc(OC)c(OC)c(OC)c2)c1	–	> 100	> 100	–	> 100	11.6	24.9	> 100	22.3	24.1
COc1cc(OC)cc(/C(C#N)=C/c2ccc(OCC(C)C)cc2)c1	–	> 100	> 100	–	> 100	13.6	22.4	> 100	7.6	32.3
COc1cc(OC)cc(/C(C#N)=C/c2ccccc2Br)c1	>11.84	> 100	8.44	–	> 100	8.2	37.2	> 100	17.4	–
CCCOc1ccc(/C=C(\C#N)c2cc(OC)cc(OC)c2)cc1	>7.06	42	14.2	>2.38	> 100	34.4	27.6	> 100	–	–
COc1cc(OC)cc(/C(C#N)=C/c2ccc(C)cc2)c1	>50	0.59	2	>169.49	> 100	23.1	38.6	> 100	–	–
COc1cc(OC)cc(/C(C#N)=C/c2cccs2)c1	>3.16	36.7	31.6	>2.73	> 100	41.7	42.2	> 100	–	–
COc1cc(OC)cc(/C(C#N)=C/c2cccc(F)c2)c1	>2.63	61.3	38	>1.63	> 100	96	41.7	96	–	–
COc1cc(OC)cc(/C(C#N)=C/c2ccccc2)c1	–	> 100	> 100	–	> 100	36.4	28	> 100	34.8	27.1
COc1cc(OC)cc(/C(C#N)=C/c2cccc3ccccc23)c1	3.59	26.4	20.4	2.78	> 100	–	44.9	73.6	–	–
CCCOc1ccccc1/C=C(\C#N)c1cc(OC)cc(OC)c1	–	> 100	> 100	–	> 100	6.4	–	> 100	4.9	27.7
